In patent publication US20230181628A1 (priority 2020, published 2023):
Like-named read-outs stand apart in the source and are kept apart here.

Columns and labels:
[1] = Lewis acidity measuring method (1): reaction rate constant of reaction between CoTPP and oxygen in the presence of a Lewis acid; assay type: physicochemical
[2] = system: oral cancer cells HO-1-u-1; conditions: 60 minutes incubation, 48 hours culture
[3] = system: bladder cancer clinical specimen-derived tumor
[4] = system: various bladder cancer cells (UM-UC-3, UM-UC-2, EJ-1, BOY-12E, 5637); conditions: 120 minutes incubation
[5] = system: colon cancer cells HT29; conditions: 60 minutes incubation, 48 hours culture
[6] = system: UM-UC-3 cells; conditions: 500 ppm NaClO2 for 120 minutes, then 24 hours culture; vs PBS group
[7] = system: pancreatic cancer cells PK10; conditions: 48 hours
[8] = system: tongue cancer cells HSC-3; conditions: 60 minutes incubation, 48 hours culture
[9] = system: UM-UC-3 cells; conditions: 500 ppm NaClO2 for 120 minutes
[10] = system: pancreatic cancer cells PK05; conditions: 48 hours
[11] = system: UM-UC-3 cells
[12] = system: UM-UC-3 cells; conditions: 500 ppm NaClO2 for 120 minutes, then 24 hours culture; PBS Control 14.6%
[13] = system: UM-UC-3 cells; remark: listed apart in the source
[14] = system: colon cancer cells HT116; conditions: 60 minutes incubation, 48 hours culture
[15] = concentration of 31 ppm or more

## CCCC[N+](CCCC)(CCCC)CCCC.F[P-](F)(F)(F)(F)F [tetrabutylammonium hexafluorophosphate]
[1]
  kcat (reaction rate constant of reaction between CoTPP and oxygen in the presence of a Lewis acid): >0.1 M^−2 s^−1

## benzalkonium chloride
[1]; acetonitrile, saturated O2, room temperature
  kcat (reaction rate constant of reaction between CoTPP and oxygen in the presence of a Lewis acid): 0.18 M^−2 s^−1

## sodium chlorite [NaClO2]
[2]
  viability / proliferation of cancer cells: effect of inhibiting proliferation of cancer cells
[3]; tumor immersed in 500 ppm NaClO2, excised on day 27
  excised tumor photograph and tumor weight: increase in bladder tumors was inhibited
[3]; tumor immersed in 500 ppm NaClO2 for 120 minutes before transplantation, measured from day 12
  proliferation of bladder cancer tumors (tumor volume): significantly inhibited
[4]; then 48 hours culture
  proliferation inhibition vs concentration: concentration-dependent proliferation inhibition
[4]; at 500 ppm or more
  bladder cancer proliferation: almost completely inhibited
[5]
  viability / proliferation of cancer cells: effect of inhibiting proliferation of cancer cells
[6]
  fraction ratio in subG1 phase: significantly increased
[7]; 0-500 ppm
  proliferation inhibitory effect vs concentration (viability): concentration-dependent proliferation inhibitory effect
[7]; [15]
  pancreatic cancer cell proliferation: almost completely inhibited
[8]
  viability / proliferation of cancer cells: effect of inhibiting proliferation of cancer cells
[9]; 0 hours after removal
  cell morphology: morphological changes
[9]; 24 hours after removal
  cell morphology: regression of cells
[9]; 24 hours after removal, magnified photomicrograph
  vesicle considered to be an apoptotic vesicle: formation of a vesicle
[10]; 0-500 ppm
  proliferation inhibitory effect vs concentration (viability): concentration-dependent proliferation inhibitory effect
[10]; [15]
  pancreatic cancer cell proliferation: almost completely inhibited
[11]; 100 ppm NaClO2 (A100) vs 100 ppm NaClO2 + 100 ppm benzethonium chloride
  reactive oxygen species detected, compared with MA-T: equivalent to or more than that with MA-T
[11]; 500 ppm NaClO2 alone
  reactive oxygen production (fluorescence plate reader): remarkable reactive oxygen production
[11]; 500 ppm NaClO2 alone, final concentration
  fluorescence of active oxygen in cells (fluorescence microscopy): remarkable active oxygen production
[11]; over time
  production of reactive oxygen species on contact with cells (fluorescence intensity): produced reactive acid species in a time-dependent manner
[12]
  apoptotic rate of UM-UC-3 cells: 43.8%
[13]; 500 ppm NaClO2, 30, 60, 90, 120 minutes
  cell proliferation vs contact time: inhibited in a time-dependent manner
[13]; 500 ppm NaClO2, 120 minutes incubation, then 48 hours culture
  inhibition of cell proliferation: more than 60%
[14]
  viability / proliferation of cancer cells: effect of inhibiting proliferation of cancer cells
